According to US20160122821A1, “GENETIC MARKERS OF ANTIPSYCHOTIC RESPONSE” (SUREGENE, LLC, priority 2013, published 2016):

System: Caucasian patients with schizophrenia (CATIE)
Experiment: Genetic association (linear regression, additive model) of SNP alleles with MMRM-modelled change in PANSS Total Score under antipsychotic treatment, CATIE trial
Assay type: in vivo, human
Protocol: For the CATIE study, individual cases were diagnosed as having SZ based on DSM-III/IV criteria. Treatment response for all patients was assessed using the Positive and Negative Syndrome Scale (PANSS) (Kay et al., 1987; Kay et al., 1989; Leucht et al., 2005). […] To avoid possible bias in post hoc selection of a treatment response variable, the inventors used the mixed model repeated measures (MMRM) approach developed by van den Oord and coworkers (van den Oord et al., 2009). […] The design of the CATIE study, including details of consent for genetic analyses, has been described in detail by others (Lieberman et al., 2005; Stroup et al., 2003; Sullivan et al., 2008). Only retrospective genetic analyses, judged to be exempt from human studies requirements by an IRB, were conducted in the current study. Consented DNA samples were obtained from the Rutgers University Cell and DNA Repository in collaboration with […]. […] All of these patients self-reported as having exclusively European ancestry. […] Genotyping was performed on a fee for service basis according to Illumina's standard operating procedures. Raw intensity files were processed using Illumina® BeadStudio version 1.7.4 software. […] Only two of these had been previously genotyped in the CATIE sample. […] To allow comparison to previously published PGx findings for CATIE and to avoid possible bias in post-hoc selection of a treatment response variable, the inventors used the mixed model repeated measures (MMRM) approach developed by Van den Oord and coworkers (van den Oord et al., 2009; […] et al., 2011). Briefly, this method models random effects by introducing random slopes for treatment effects, allowing treatment effects to be different across subjects. The MMRM approach serves to increase the statistical power to detect genetic associations by increasing the precision in measuring change in PANSS Total Score (PANSS-T) by accounting for variance due to baseline PANSS-T, and treatment, as well as smoothing out the random fluctuations in PANSS-T between visits due to various uncontrolled variables. […] Bozeman, Mont.). Quantile-Quantile (QQ) plots were prepared using the R statistical package version 2.14.1. For comparison purposes, original CATIE-provided SNP genotypes in specific genes were evaluated using the same genetic analysis. Haplotype association integrating newly generated and original genotypes for specific regions was carried out in SVS using haplotype blocks predefined by Haploview software. […] For each of the SNPs listed the reference SNP (rs) number is provided, which provides the known sequence context for the given SNP (see, e.g., National Center for Biotechnology Information (NCBI) SNP database available on the world wide web at ncbi.nlm.nih.gov/snp).

Cc1cc2c(s1)Nc1ccccc1N=C2N1CCN(C)CC1 [Olanzapine, olanzapine]
Beta (PANSS) (ADAMTS9-AS2 rs17071651 allele C): −3.03 PANSS | Beta (PANSS) (AGAP1 rs4663220 allele T): −3.07 PANSS | Beta (PANSS) (ANK3 rs2893823 allele A): −4.47 PANSS | Beta (PANSS) (ANK3 rs10821660 allele G): −4.45 PANSS | Beta (PANSS) (APCDD1 rs1045584 allele G): −3.41 PANSS | Beta (PANSS) (ARHGAP31 rs751607 allele A): −4.30 PANSS | Beta (PANSS) (ARVCF rs2238794 allele C): −3.11 PANSS | Beta (PANSS) (ATP10A rs2291351 allele A): −4.99 PANSS | Beta (PANSS) (BIK rs5996274 allele A): −4.94 PANSS | Beta (PANSS) (CA10 rs741682 allele A): −5.58 PANSS | Beta (PANSS) (CACNA1B rs12352971 allele G): −4.21 PANSS | Beta (PANSS) (CACNG4 rs7219571 allele A): −5.84 PANSS | Beta (PANSS) (CAMK2D rs13113625 allele C): −3.68 PANSS | Beta (PANSS) (CDH13 rs3743621 allele C): −5.54 PANSS | Beta (PANSS) (CLIC5 rs35822882 allele G): −14.90 PANSS | Beta (PANSS) (CNTN4 rs1554561 allele T): −4.50 PANSS | Beta (PANSS) (CNTN4 rs4685501 allele T): −4.63 PANSS | Beta (PANSS) (CPNE5 rs12194367 allele T): −3.14 PANSS | Beta (PANSS) (CSMD1 rs2724972 allele G): −4.69 PANSS | Beta (PANSS) (CSMD1 rs7815861 allele C): −5.06 PANSS | Beta (PANSS) (DLGAP1 rs498419 allele A): −3.07 PANSS | Beta (PANSS) (DLGAP1 rs561434 allele A): −4.43 PANSS | Beta (PANSS) (EHD4 rs1048166 allele C): −3.04 PANSS | Beta (PANSS) (EHD4 rs1048175 allele C): −3.04 PANSS | Beta (PANSS) (EML1 rs34198557 allele C): −4.01 PANSS | Beta (PANSS) (ERBB4 rs7565257 allele A): −3.44 PANSS | Beta (PANSS) (ERG rs9981408 allele G): −3.15 PANSS | Beta (PANSS) (EXOC2 rs9405889 allele C): −3.21 PANSS | Beta (PANSS) (FAM170A rs2162856 allele A): −3.06 PANSS | Beta (PANSS) (FAM173B rs12652786 allele C): −3.39 PANSS | Beta (PANSS) (FBN3 rs2287937 allele C): −5.34 PANSS | Beta (PANSS) (FGF14 rs2390674 allele A): −4.22 PANSS | Beta (PANSS) (FHIT rs971866 allele A): −5.07 PANSS | Beta (PANSS) (FMNL2 rs4664113 allele C): −4.25 PANSS | Beta (PANSS) (FSTL5 rs13127909 allele C): −4.60 PANSS | Beta (PANSS) (GAN rs1345895 allele A): −3.53 PANSS | Beta (PANSS) (GAS7 rs9904524 allele G): −4.96 PANSS | Beta (PANSS) (GPC6 rs9301876 allele A): −4.68 PANSS | Beta (PANSS) (GRM8 rs17865066 allele A): −7.97 PANSS | Beta (PANSS) (GRM8 rs17865434 allele C): −7.97 PANSS | Beta (PANSS) (HTR1B rs11568817 allele G): −3.16 PANSS | Beta (PANSS) (IFT74 rs4463511 allele C): −3.77 PANSS | Beta (PANSS) (IL1RAP rs2361835 allele A): −3.93 PANSS | Beta (PANSS) (IL1RAP rs7642607 allele A): −3.93 PANSS | Beta (PANSS) (IL1RAP rs7642797 allele A): −3.93 PANSS | Beta (PANSS) (IL15 rs3806798 allele A): −4.33 PANSS | Beta (PANSS) (ITPR1 rs11717244 allele C): −3.53 PANSS | Beta (PANSS) (JPH2 rs2064381 allele A): −3.06 PANSS | Beta (PANSS) (KAZN rs12130605 allele C): −3.66 PANSS | Beta (PANSS) (KCND2 rs718805 allele A): −5.26 PANSS | Beta (PANSS) (KCND2 rs10953911 allele G): −5.26 PANSS | Beta (PANSS) (KCND2 rs11765060 allele C): −5.30 PANSS | Beta (PANSS) (KCNH1 rs4282878 allele C): −3.08 PANSS | Beta (PANSS) (KDM4C rs35389625 allele C): −11.20 PANSS | Beta (PANSS) (KITLG rs995029 allele C): −7.22 PANSS | Beta (PANSS) (LDB2 rs872478 allele C): −3.53 PANSS | Beta (PANSS) (LRP1B rs4591293 allele A): −3.04 PANSS | Beta (PANSS) (MACROD2 rs461651 allele A): −3.59 PANSS | Beta (PANSS) (MACROD2 rs6079429 allele A): −4.72 PANSS | Beta (PANSS) (MAGI2 rs848813 allele C): −4.34 PANSS | Beta (PANSS) (MAGI2 rs12705833 allele G): −2.87 PANSS | Beta (PANSS) (MCPH1 rs930557 allele C): −3.78 PANSS | Beta (PANSS) (MEPE rs3749575 allele A): −8.95 PANSS | Beta (PANSS) (MTIF3 rs12585587 allele A): −4.37 PANSS | Beta (PANSS) (NAB1 rs2293765 allele A): −4.60 PANSS | Beta (PANSS) (NELL1 rs4244549 allele C): −4.96 PANSS | Beta (PANSS) (NRXN1 rs11885824 allele A): −5.21 PANSS | Beta (PANSS) (NTRK2 rs1490403 allele A): −3.10 PANSS | Beta (PANSS) (NTRK2 rs1490407 allele G): −3.00 PANSS | Beta (PANSS) (NTRK2 rs4142909 allele C): −3.81 PANSS | Beta (PANSS) (NTSR2 rs7602721 allele C): −4.08 PANSS | Beta (PANSS) (PARD3B rs17283257 allele A): −3.82 PANSS | Beta (PANSS) (PCDH15 rs10825137 allele A): −4.89 PANSS | Beta (PANSS) (PCDH17 rs7319102 allele A): −3.47 PANSS | Beta (PANSS) (PCP4L1 rs6671288 allele C): −4.15 PANSS | Beta (PANSS) (PDGFD, DDI1 rs2279789 allele C): −4.42 PANSS | Beta (PANSS) (PEBP4 rs13271643 allele C): −5.41 PANSS | Beta (PANSS) (PI4KA, SERPIND1 rs78656 allele C): −7.22 PANSS | Beta (PANSS) (PKNOX2 rs1044314 allele G): −4.14 PANSS | Beta (PANSS) (PKP4 rs11680160 allele A): −4.33 PANSS | Beta (PANSS) (PRDM2 rs6429793 allele A): −3.13 PANSS | Beta (PANSS) (PSD3 rs7016207 allele C): −6.20 PANSS | Beta (PANSS) (PTPRT rs6030084 allele A): −2.96 PANSS | Beta (PANSS) (RASGEF1C rs2278661 allele C): −3.04 PANSS | Beta (PANSS) (RBFOX1 rs7194775 allele C): −4.37 PANSS | Beta (PANSS) (RIMS1 rs9446639 allele C): −3.56 PANSS | Beta (PANSS) (RNF144A rs7605141 allele C): −4.00 PANSS | Beta (PANSS) (ROBO2 rs4343667 allele C): −4.96 PANSS | Beta (PANSS) (RORA rs12910376 allele C): −3.38 PANSS | Beta (PANSS) (SCN3A rs10048748 allele C): −5.44 PANSS | Beta (PANSS) (SEC16B rs16852158 allele C): −6.45 PANSS | Beta (PANSS) (SGCZ rs10503525 allele C): −3.05 PANSS | Beta (PANSS) (SGCZ rs13278000 allele A): −2.91 PANSS | Beta (PANSS) (SLC6A5 rs1443547 allele A): −3.31 PANSS | Beta (PANSS) (SLC16A4 rs12126959 allele A): −4.16 PANSS | Beta (PANSS) (SLC16A9 rs16913940 allele A): −6.05 PANSS | Beta (PANSS) (SLC35F3 rs12759054 allele C): −3.34 PANSS | Beta (PANSS) (SPOCK1 rs1051854 allele G): −6.02 PANSS | Beta (PANSS) (WDR90 rs1057835 allele A): −3.10 PANSS | Beta (PANSS) (ZNF169 rs9409514 allele C): −3.04 PANSS
